Data reported in article PMC6151468, “Efficacy of Bioactive Cyclic Peptides in Rheumatoid Arthritis: Translation from In Vitro to In Vivo Models” (Molecules : A Journal of Synthetic Chemistry and Natural …, 2017).

Test system: Collagen Antibody-Induced Arthritis (CAIA) model
Test: CAIA model in mice, first study
Format: in vivo
Details: ten-day period; Humira 10 mg/kg bolus day 1; Lex 5.2 0.32 mg/kg/day i.p.; compared with stimulated untreated animals; Figure 11
Source text: In light of the ability of cyclic peptides to alter the behaviour of macrophages, down-regulating TNF secretion both in vitro and in vivo, the investigation was extended to examine whether such peptides could have an impact on inflammatory diseases such as rheumatoid arthritis, where activation of macrophages, and secretion of TNF, is an important component. The CAIA model was chosen, as its use of lipopolysaccharide as one of the stimulants mirrors the models already employed. The other inducer of inflammation is a cocktail of anti-collagen antibodies, which are agents thought to contribute to disease in the human condition. A scheme of the experimental design is shown in Figure 8, and detailed methodology is provided in the Materials and Methods section of this article. […]
A range of different parameters was measured, as follows: (i) clinical score—a subjective assessment of the number of joints in each paw affected; (ii) paw thickness—measurement of oedema in the paws, reflecting the severity of inflammation; (iii) TNF levels—rise in the bloodstream immediately after LPS administration; (iv) weight change—loss of weight resulting from inflammation. […]

adalimumab [Humira]
Change in weight: much reduced
